Results on 39 compounds are retold here after patent publication US20130085283A1, “GERANYLGERANYLACETONE DERIVATIVES” (Coyote Pharmaceuticals, Inc., priority 2011, published 2013).

Marks after values point to notes of the source that are not given here.

One test has as its system Neuro2A cells. Put plainly: In vitro neuroprotection: Neuro2A cells cultured with GGA derivative with or without GGTI-298, cells that extended neurites counted. The class given is cell-based, mouse. As to conditions: for Activity 1 μM: compound at 1 μM; for Activity 1 μM / Activity 1 nm: cells that extended neurites counted, normalized by the activity of CNS-102 (GGA trans-isomer); for Activity 1 nm: compound at 1 nm (so in the source). As to the method: Neuro2A cells were cultured with a GGA derivative in the presence or absence of an inhibitor against a G-protein (GGTI-298). After differentiation was induced, cells that extended neurites were counted as an activity of the compound. The activities are shown in arbitrary units and were normalized by the activity of CNS-102 (GGA trans-isomer) in each parallel experiments.

The subject of the next test is Sprague-Dawley rats. Put plainly: Neurodegeneration induced by Kainic acid in rats (hippocampus CA3 neuron damage, seizure behavior scores). The note with it: oral dosing, Kainic acid injected. The test is classed as in vivo, rat. How it is done:
The compounds and the compositions of this invention are tested in vivo for their ability to alleviate neurodegenerations induced by Kainic acid. See, for example, PCT Pat. App. No. PCT/US2011/050071, supra. A compound or composition of this invention is orally dosed to Sprague-Dawley rats, and Kainic acid is injected. Seizure behaviors are observed and scored (see, e.g., R. J. Racine, Modification of seizure activity by electrical stimulation: II. Motor seizure, Electroencephalogr. Clin. Neurophysiol. 32 (1972) 281-294). Brain tissues of rats are sectioned on histology slides, and neurons in hippocampus tissues are stained by Nissl.
The indicated compounds or vehicle control were orally dosed to Sprague-Dawley rats, and Kainic acid was injected. Seizure behaviors were observed and scored (Ref. R. J. Racine, Modification of seizure activity by electrical stimulation: 11. Motor seizure, Electroencephalogr. Clin. Neurophysiol. 32 (1972) 281-294. Modifications were made for the methods). Brain tissues of rats were sectioned on histology slides, and neurons in hippocampus tissues were stained by Nissl. Neurons damaged by Kainic acid (mean of hippocampus CA3 neurons damaged) and behavior scores (mean of seizure behavior scores) were quantified.

A further test relates to HSP70. Put plainly: Expression of heat shock proteins in vitro (Western blotting of Neuro2A lysates). The class given is cell-based. As to conditions: Mus musculus, N2a, retinoic acid differentiation, GGTI-298, 24 hrs; for fold induction at 0.1 µM: 100 nM, signal in the absence of the compounds normalized as 1, read-out: HSP70 Western signal, Compound Dose 100 nM; for fold induction at 1 µM: signal in the absence of the compounds normalized as 1, read-out: HSP70 Western signal, Compound Dose 1 μM; for fold induction at 10 µM: signal in the absence of the compounds normalized as 1, read-out: HSP70 Western signal, Compound Dose 10 μM. As to the method:
Mouse Neuro2A neuroblastoma cells were cultured in DMEM supplemented with 10% FBS for 24 hrs. The cells were treated with various concentrations of the indicated compounds. Then differentiation was induced by retinoic acid in DMEM supplemented with 2% FBS. An inhibitor against a G-protein, GGTI-298, was incubated. After 24 hrs incubation, cells were harvested, and lysates were prepared from the harvested cells. Western blotting analysis was done for the same protein amounts of these lysates, and western signals were detected by chemiluminescence and quantified in parallel with comparisons of those detected in the absence of the compound. Western signals in the absence of the compounds were normalized as 1.
Background: A western blot detects proteins with antibodies after separation by electrophoresis.

For `CCOC(=O)C(C/C=C(\C)CC/C=C(\C)CCC=C(C)C)C(C)=O` (stereo not shown), in the test with Neuro2A cells, the “Activity 1 μM” value was 259* arbitrary units. Turning to `CCC(=O)CC/C=C(\C)CC/C=C(\C)CC/C=C(\C)CCC=C(C)C`, in the test on Neuro2A cells, the “Activity 1 nm” value is 186 arbitrary units. On the same count and under the same terms, with `CCOC(=O)C(C/C=C(\C)CC/C=C(\C)CC/C=C(\C)CCC=C(C)C)C(=O)C12CC3CC(CC(C3)C1)C2` (stereo not shown) the figure was 145 arbitrary units. With `CCOC(=O)C(C/C=C(\C)CC/C=C(\C)CC/C=C(\C)CCC=C(C)C)C(=O)C(C)C` (stereo not shown), the “Activity 1 nm” value with Neuro2A cells is given as 173 arbitrary units.

For the compound `CCOC(=O)C(CC=C1CCCCC1)C(C)=O` (stereo not shown), the “Activity 1 μM” value in the test on Neuro2A cells is recorded as 162* arbitrary units.

Consider `CCOC(=O)/C=C(\C)CCC=C1CCCCC1`, for which, in the test on Neuro2A cells, the “Activity 1 μM” value was 161* arbitrary units. Take `C/C(=C\CO)CCC=C1CCCCC1`: the “Activity compared with control experiment with no addition of compound” value in the test on Neuro2A cells (in words, concentration not given) is “* Under the conditions tested, this compound was not found to have activity beyond that of the control for this assay”. `CCOC(=O)C=C1CCCCC1`: in the test on Neuro2A cells, the “Activity 1 μM” value is 240* arbitrary units. On the same count and under the same terms, with `CC(C)=CCC/C(C)=C/CC/C(C)=C/CC/C(C)=C/CC/C(C)=N/OCc1ccccc1` the figure was 287 arbitrary units. With `CCO/N=C(\C)CC/C=C(\C)CC/C=C(\C)CC/C=C(\C)CCC=C(C)C`, the “Mean of Hippocampus CA3 neurons damaged” value in the test on Sprague-Dawley rats (Vehicle 17.59 in this table) was found to be 14.66 Arbitrary units. With `CC(C)=CCC/C(C)=C/CC/C(C)=C/CC/C(C)=C/CC/C(C)=C/CCC(=O)C1CC1`, in the test on Sprague-Dawley rats (Vehicle 6.59 in this table), the “Mean of Hippocampus CA3 neurons damaged” value is listed as 5.98 Arbitrary units.

Consider `CC(C)=CCC/C(C)=C/CC/C(C)=C/CC/C(C)=C/C=O`, for which the “Mean of Hippocampus CA3 neurons damaged” value with Sprague-Dawley rats (Vehicle 1.72 in this table) came out at 1.58 Arbitrary units.

For `CC(C)=CCC/C(C)=C/CC/C(C)=C/CC/C(C)=C/CC/C(C)=N/OCC(=O)O`, the “Mean of Seizure behaviors scores” value in the test on Sprague-Dawley rats (Vehicle 26.68 in this table) turned out to be 13.37 Arbitrary units.

Turning to `CC(C)=CCC/C(C)=C/CC/C(C)=C/CCC(C)OC(=O)NCC1CCCCC1` (stereo not shown), in the test on HSP70, the fold induction at 0.1 µM came out at 1.55, the fold induction at 1 µM stood at 1.49 and the fold induction at 10 µM came to 2.53.

With `CCC(=O)CC/C=C(\CC)CC/C=C(\C)CC/C=C(\C)CCC=C(C)C`, in the test on HSP70, the fold induction at 0.1 µM amounted to 1.79, the fold induction at 1 µM turned out to be 6.08 and the fold induction at 10 µM turned out to be 4.76.

In the case of `CC(C)=CCC/C(C)=C/CC/C(C)=C/CC/C(C)=C/CC1CCCCC1=O` (stereo not shown) [drawing 150], the “Mean of Hippocampus CA3 neurons damaged” value in the test with Sprague-Dawley rats (Vehicle 15.61 in this table) came to 2.64 Arbitrary units. Take `CC(=O)CC/C=C(\C)CC/C=C(\C)CC/C=C(\C)CCC=C(C)C` [drawing 151]: in the test with Sprague-Dawley rats (Vehicle 15.61 in this table), the “Mean of Hippocampus CA3 neurons damaged” value was 9.46 Arbitrary units. Regarding `CC(C)=CCC/C(C)=C/CC/C(C)=C/CC/C(C)=C/CCC1(C)OCCO1` [drawing 152], the “Mean of Hippocampus CA3 neurons damaged” value in the test on Sprague-Dawley rats (Vehicle 15.31 in this table) stood at 12.11 Arbitrary units. Take `CCOC(=O)C(C/C=C(\C)CC/C=C(\C)CC/C=C(\C)CCC=C(C)C)C(C)=O` (stereo not shown) [drawing 153]: in the test on Sprague-Dawley rats (Vehicle ~7.74 in this table), the “Mean of Hippocampus CA3 neurons damaged” value is approximately 5.57 Arbitrary units. `CC(=O)CC/C=C(\C)CC/C=C(\C)CCC=C(C)C` [drawing 154]: the “Mean of Hippocampus CA3 neurons damaged” value in the test on Sprague-Dawley rats (Vehicle 19.95 in this table) worked out at 10.61 Arbitrary units. On the same count and under the same terms, with `CC/C(=C\CCC(=O)C12CC3CC(CC(C3)C1)C2)CC/C=C(\C)CC/C=C(\C)CCC=C(C)C` [drawing 155] the figure was 12.54 Arbitrary units. In the case of `COC(=O)C(NC(=O)OC(C)CC/C=C(\C)CC/C=C(\C)CCC=C(C)C)C(C)C` (stereo not shown) [drawing 156], the “Mean of Hippocampus CA3 neurons damaged” value in the test on Sprague-Dawley rats (Vehicle 9.76 in this table) came to 6.61 Arbitrary units. Regarding `CC(=O)CC/C=C(\C)CC/C=C(\C)CC/C=C(\C)CC/C=C(\C)CCC=C(C)C` [drawing 158], the “Mean of Hippocampus CA3 neurons damaged” value in the test on Sprague-Dawley rats (Vehicle 12.71 in this table) is 2.22 Arbitrary units. For the compound `CC(C)=CCC/C(C)=C/CC/C(C)=C/CC/C(C)=C/COC(=O)C1CCCCC1` [drawing 159], the “Mean of Hippocampus CA3 neurons damaged” value in the test with Sprague-Dawley rats (Vehicle 6.59 in this table) amounted to 1.55 Arbitrary units.

As for `CC(C)=CCC/C(C)=C/CC/C(C)=C/CC/C(C)=C/CCC(=O)C(C)(C)C` [drawing 161], the “Mean of Hippocampus CA3 neurons damaged” value in the test with Sprague-Dawley rats (Vehicle 12.91 in this table) turned out to be 8.08 Arbitrary units. Take `CCCCCNC(=O)OC(C)CC/C=C(\C)CC/C=C(\C)CCC=C(C)C` (stereo not shown) [drawing 162]: the “Mean of Hippocampus CA3 neurons damaged” value in the test on Sprague-Dawley rats (Vehicle 7.09 in this table) stood at 14.73 Arbitrary units. For the compound `CC(C)=CCC/C(C)=C/CC/C(C)=C/CC/C(C)=C/CCC1(C)OCCO1` [drawing 165], the “Mean of Seizure behaviors scores” value in the test on Sprague-Dawley rats (Vehicle 41.56 in this table) came to 16.35 Arbitrary units. `CC(C)=CCC/C(C)=C/CC/C(C)=C/CC/C(C)=C/CCC(=O)C(C)(C)C` [drawing 166]: the “Mean of Seizure behaviors scores” value in the test on Sprague-Dawley rats (Vehicle 19.75 in this table) was determined as 11.25 Arbitrary units. `CC(C)=CCC/C(C)=C/CC/C(C)=C/CC/C(C)=C/COC(=O)C1CCCCC1` [drawing 167]: the “Mean of Seizure behaviors scores” value in the test on Sprague-Dawley rats (Vehicle 26.31 in this table) was determined as 18.68 Arbitrary units. Take `CCOC(=O)C(C/C=C(\C)CC/C=C(\C)CC/C=C(\C)CCC=C(C)C)C(C)=O` (stereo not shown) [drawing 168]: the “Mean of Seizure behaviors scores” value in the test with Sprague-Dawley rats (Vehicle 13.37 in this table) was 3.83 Arbitrary units.

Consider `CC(C)=CCC/C(C)=C/CC/C(C)=C/CC/C(C)=C/COC(=O)C1CCCCC1` [drawing 169], for which, in the test on HSP70, the fold induction at 0.1 µM was determined as 2.53, the fold induction at 1 µM was 2.34 and the fold induction at 10 µM stood at 2.53. Consider `CCCCCNC(=O)OC(C)CC/C=C(\C)CC/C=C(\C)CCC=C(C)C` (stereo not shown) [drawing 170], for which, in the test with HSP70, the fold induction at 0.1 µM stood at 1.16, the fold induction at 1 µM is 1.26 and the fold induction at 10 µM was 1.93. The like results for `CC(=O)CC/C=C(\C)CC/C=C(\C)CC/C=C(\C)CC/C=C(\C)CCC=C(C)C` [drawing 171] were, in that order, 1.92, 2.78 and 3.53. With `CC(C)=CCC/C(C)=C/CC/C(C)=C/CC/C(C)=C/CCC1(C)OCCO1` [drawing 172], in the test with HSP70, the fold induction at 0.1 µM was 3.16, the fold induction at 1 µM was determined as 3.5 and the fold induction at 10 µM stood at 3.49.

With `CC(C)=CCC/C(C)=C/CC/C(C)=C/CC/C(C)=C/CC1CCCCC1=O` (stereo not shown) [drawing 173], in the test with HSP70, the fold induction at 0.1 µM was determined as 3.85, the fold induction at 1 µM came to 3.78 and the fold induction at 10 µM worked out at 2.25. Taken in the same sequence, the figures for `CC(=O)CC/C=C(\C)CC/C=C(\C)CCC=C(C)C` [drawing 175] were 1.87, 5.86 and 1.79. Taken in the same sequence, the figures for `CC/C(=C\CCC(=O)C12CC3CC(CC(C3)C1)C2)CC/C=C(\C)CC/C=C(\C)CCC=C(C)C` [drawing 177] were 1.71, 2 and 1. As to `CC(=O)CC/C=C(\C)CC/C=C(\C)CC/C=C(\C)CCC=C(C)C` [drawing 178], in the test with HSP70, the fold induction at 0.1 µM is 1.38, the fold induction at 1 µM came out at 2.05 and the fold induction at 10 µM amounted to 2.14. The like results for `COC(=O)C(NC(=O)OC(C)CC/C=C(\C)CC/C=C(\C)CCC=C(C)C)C(C)C` (stereo not shown) [drawing 179] were, in that order, 1.26, 1.07 and 1.29.
